Experimental findings from ChEMBL document CHEMBL4627248, “Emerging small-molecule therapeutic approaches for amyotrophic lateral sclerosis and frontotemporal dementia” (Bioorg Med Chem Lett, 2020) are described below.

Where only a bound is given, the exact number is not on record here.

The target in one experiment is T1, TAR DNA-binding protein 43 (Homo sapiens, UniProt Q13148). The experiment can be described thus: Inhibition of TDP-43 (unknown origin) binding to RNA.
T1 sequence (Q13148 whole entry): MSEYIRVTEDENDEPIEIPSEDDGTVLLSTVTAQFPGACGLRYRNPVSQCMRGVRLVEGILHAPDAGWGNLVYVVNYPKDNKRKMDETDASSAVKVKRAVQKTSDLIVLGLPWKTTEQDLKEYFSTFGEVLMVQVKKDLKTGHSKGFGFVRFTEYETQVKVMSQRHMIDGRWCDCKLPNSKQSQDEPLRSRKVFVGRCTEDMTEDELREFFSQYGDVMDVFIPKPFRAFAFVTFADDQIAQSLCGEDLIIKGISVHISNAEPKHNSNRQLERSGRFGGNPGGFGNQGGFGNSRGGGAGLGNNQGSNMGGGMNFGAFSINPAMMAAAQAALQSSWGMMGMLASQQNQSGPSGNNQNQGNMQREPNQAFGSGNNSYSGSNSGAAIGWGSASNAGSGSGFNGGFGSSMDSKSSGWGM
`COc1cc(NC(=O)CCC2CCCN(Cc3ccc(F)c(OC)c3)C2)cc(OC)c1` (stereo not given) showed an IC50 of 0.1 µM.

Compound `CCc1cccc(C)c1NS(=O)(=O)c1cnccc1C(=O)N1CCCC1` had an IC50 of more than 0.1 µM.

`NC(=O)CCCCC1CCSS1` (racemic) [THIOCTIC ACID AMIDE] showed an IC50 of 20 µM.

With `O=C1c2c(O)ccc(O)c2C(=O)c2c(NCCNCCO)ccc(NCCNCCO)c21` [MITOXANTRONE], the half-inhibitory concentration (IC50) was 10 µM.

In the case of `O=C(O)CCCC[C@@H]1CCSS1` [THIOCTIC ACID], the IC50 is 20 µM.

The target in a further experiment is T1, TAR DNA-binding protein 43. The experiment can be described thus: Binding affinity to TDP-43 (unknown origin).
`NC(=O)c1cncc(N2CCCC(CO)(Cc3ccc(F)cc3)C2)n1` (stereo not given): binding was put at a Kd of 89 µM.

The target of the next experiment is (G4C2)8 hairpin RNA. The experiment can be described thus: Binding affinity to (G4C2)8 hairpin RNA (unknown origin) by TO-PRO-1 dye displacement assay.
Take `Cc1c2cc[n+](C)cc2c(C)c2c1[nH]c1ccc(O)cc12`: the dissociation constant Kd was 0.9 µM.

Compound `CCN(CC)CC[n+]1ccc2c(C)c3[nH]c4ccc(O)cc4c3c(C)c2c1` yielded a dissociation constant Kd of 1.4 µM.

`CCN(CC)CCNC(=O)c1cc2cc(NC(=O)c3cc4cc(N)ccc4[nH]3)ccc2[nH]1`: binding was put at a Kd of 16 µM.

Compound `N=C(N)c1ccc(Nc2ccc(-c3cc4ccc(C(=N)N)cc4[nH]3)cc2)cc1` had a Kd of 10 µM.
